{"source": "patent US9925280B2", "about": "“Hyperpolarized amino acids” (BRACCO IMAGING S.P.A., priority 2012, dated 2018)", "assay": "Solubility in anhydrous solvents", "assay_type": "physicochemical", "experimental": "The above components of the DNP mixture can be admixed according to any suitable technique and methodology known in the art. In a preferred embodiment, the amino acid and the hydroxide are first admixed as dry powders. The powder mixture is then dissolved in the anhydrous solvent, which preferably already contains the polarizing agent dissolved therein. […] Optionally, the DNP mixture may further contain a paramagnetic metal ion, for further increasing the polarisation levels in the compound to be polarised (see e.g. WO 2007/064226 herein incorporated by reference); preferably, the paramagnetic metal ion is in the form of a complex with a chelating agent, such as, for instance DOTA, DO3A, BOPTA or DTPA; preferably the paramagnetic metal ion is a Gadolinium (Gd^3+)."}
{"smiles": "NC(=O)CC[C@H](N)C(=O)O", "note": "[glutamine]", "values": [{"measurement": "solubility in anhydrous solvents", "result": "very poor solubility"}]}
